Consider 14 compounds from US20130302282A1, “Inhibitors of Hepatitis C Virus” (priority 2010, published 2013).

One assay deals with T1, HCV NS5B S365A mutant (Hepatitis C virus genotype 1b, UniProt Q9WMX2, S2784A).
T1 construct: HCV NS5B C316Y or S365A mutant as indicated; expressed in transfected cells
In words: Activity against HCV NS5B S365A mutant. In kind it is cell-based. The following applies: for Inhibition of HCV NS5B S3865A mutant: class symbol. The procedure: (§1) The biological activity against HCV 1b, 1a, or 2a is indicated as being *, **, ***, or ****, which corresponds to EC50 ranges of EC50>1000 nM, 100 nM<EC50≦1000 nM, 10 nM<EC50≦100 nM, or EC50≦10 nM, respectively. The biological activity against HCV NS5B C316Y or S365A mutant is indicated as being […], which corresponds to EC50 ranges of EC50>1000 nM, 200 nM<EC50≦1000 nM, […], respectively.

The test system of assay [1] is 1b_Huh-Luc/Neo-ET cell line (bicistronic genotype 1b replicon in Huh 7 cells). In words: HCV 1b replicon assay, luciferase readout. In kind it is cell-based, HCV genotype 1b. Conditions: Hepatitis C virus. In a few lines: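 Huh 7 cells persistently carrying a bicistronic genotype 1b luciferase replicon, treated with compound in triplicate the day after plating and incubated 72 h. Luciferase activity measured by Bright-Glo and expressed as percent of untreated control; EC50 from four-parameter fit, repeated several times.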
In general terms: In antiviral work, replicon cells carry a viral genome segment that copies itself.

The subject of another assay is HCV 1a. In words: HCV 1a replicon assay. The assay is classed as cell-based. The following applies: Hepatitis C virus; class symbol; cell marked (HCV genotype 1a replicon); read-out: Inhibition of HCV genotype 1a replicon. As to the method:
Compounds of the invention can inhibit multiple genotypes of HCV selected but not limited to 1a, 1h, 2a, 3a, and 4a. The EC50s are measured in the corresponding replicon assays that are similar to HCV 1b replicon assay as described above.
as §1

A further assay deals with T2, HCV NS5B C316Y mutant (Hepatitis C virus genotype 1b, UniProt Q9WMX2, C2735Y).
T2 construct: HCV NS5B C316Y or S365A mutant as indicated; expressed in transfected cells
In words: Activity against HCV NS5B C316Y mutant. In kind it is cell-based. The following applies: for Inhibition of HCV N55B C316Y mutant: class symbol. The procedure: as §1

Setting [2] is: Huh-7, 1b_Huh-Luc/Neo-ET cell line, read-out: EC50, half-maximal inhibition of HCV 1b replication.
[3] abbreviates: Huh-7, class symbol, HCV genotype 1b replicon, read-out: Inhibition of HCV genotype 1b replicon.
[4] abbreviates: Huh-7, numeric value, HCV genotype 1b replicon, read-out: Inhibition of HCV genotype 1b replicon (EC50).

Where two headings read alike, the source gives them in different places. Bounds are passed on as bounds.

T1 sequence (Q9WMX2 2420-3010 S2784A): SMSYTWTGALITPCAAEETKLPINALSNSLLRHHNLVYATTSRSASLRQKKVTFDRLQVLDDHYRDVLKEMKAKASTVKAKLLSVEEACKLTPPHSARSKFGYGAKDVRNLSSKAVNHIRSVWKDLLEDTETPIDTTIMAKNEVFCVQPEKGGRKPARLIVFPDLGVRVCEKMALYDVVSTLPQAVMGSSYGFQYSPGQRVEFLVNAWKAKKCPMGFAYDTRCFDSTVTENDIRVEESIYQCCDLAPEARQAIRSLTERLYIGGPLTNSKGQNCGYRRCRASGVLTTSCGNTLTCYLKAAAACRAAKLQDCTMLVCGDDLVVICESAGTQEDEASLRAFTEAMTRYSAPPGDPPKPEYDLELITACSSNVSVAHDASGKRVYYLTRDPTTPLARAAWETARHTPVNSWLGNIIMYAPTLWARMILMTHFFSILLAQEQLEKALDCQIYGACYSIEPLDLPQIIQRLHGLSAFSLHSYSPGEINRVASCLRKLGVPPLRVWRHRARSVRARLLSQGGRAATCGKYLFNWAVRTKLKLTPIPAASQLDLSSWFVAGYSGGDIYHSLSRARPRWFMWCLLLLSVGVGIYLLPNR
T2 sequence (Q9WMX2 2420-3010 C2735Y): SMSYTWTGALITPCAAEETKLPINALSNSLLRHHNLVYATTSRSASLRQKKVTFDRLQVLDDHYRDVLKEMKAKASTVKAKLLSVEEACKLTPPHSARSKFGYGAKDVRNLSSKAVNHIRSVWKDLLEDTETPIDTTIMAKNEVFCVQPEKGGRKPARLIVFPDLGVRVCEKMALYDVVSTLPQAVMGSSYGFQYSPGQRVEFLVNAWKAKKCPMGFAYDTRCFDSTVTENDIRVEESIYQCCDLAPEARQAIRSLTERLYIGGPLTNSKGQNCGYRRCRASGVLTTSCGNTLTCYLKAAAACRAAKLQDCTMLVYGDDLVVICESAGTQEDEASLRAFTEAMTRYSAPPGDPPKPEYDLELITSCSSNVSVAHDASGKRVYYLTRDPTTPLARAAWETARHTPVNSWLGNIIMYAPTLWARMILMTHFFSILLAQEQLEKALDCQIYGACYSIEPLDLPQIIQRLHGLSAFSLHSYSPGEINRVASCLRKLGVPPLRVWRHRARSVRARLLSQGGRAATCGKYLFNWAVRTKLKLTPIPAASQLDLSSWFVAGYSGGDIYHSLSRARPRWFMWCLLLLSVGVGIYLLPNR

As for `CC1CCCN(S(C)(=O)=O)c2cc3oc(-c4ccc(F)cc4)c(-c4ncc[nH]4)c3cc21` (stereo not drawn) [Compound B120], the “Inhibition of HCV NS5B S3865A mutant” value at HCV NS5B S365A mutant is recorded as “†††”. Also, the EC50 is ≤ 0.01 µM in assay [1] (setting [2]) and < 0.01 µM in the assay on HCV 1a. In addition, the “Inhibition of HCV N55B C316Y mutant” value on HCV NS5B C316Y mutant is given as “†††”.

As to `CNC(=O)c1c(-c2ccc(F)cc2)oc2cc3c(cc12)[C@H](C)N(C)C(=O)CN3S(C)(=O)=O` (single isomer, unassigned) [Compound B179], the EC50 on HCV NS5B S365A mutant lay in the range of 0.2 to 1 µM; in assay [1] (setting [2]), 0.01 to 0.1 µM; in assay [1] (setting [3]) it was 0.01 to 0.1 µM. Besides, the “Inhibition of HCV N55B C316Y mutant” value on HCV NS5B C316Y mutant was “†††”.

In the case of `CNC(=O)c1c(-c2ccc(Oc3ccc(F)cc3)cc2)oc2cc3c(cc12)[C@H](C)O[C@H](CO)CN3S(C)(=O)=O` [Compound B232], the “Inhibition of HCV NS5B S3865A mutant” value on HCV NS5B S365A mutant is listed as “†††”. The EC50 is ≤ 0.01 µM in assay [1] (setting [2]) and < 0.01 µM in assay [1] (setting [3]). In addition, at HCV NS5B C316Y mutant, the “Inhibition of HCV N55B C316Y mutant” value is recorded as “†††”.

As for `CNC(=O)c1c(-c2ccc(F)cc2)oc2cc3c(cc12)[C@H](C)OC1(CC1)CN3S(C)(=O)=O` (single isomer, unassigned) [Compound B193], the EC50 on HCV NS5B S365A mutant lay within 0.2 to 1 µM; in assay [1] (setting [2]), 0.01 to 0.1 µM; in assay [1] (setting [3]), 0.01 to 0.1 µM; on HCV NS5B C316Y mutant, 0.2 to 1 µM.

As to `CNC(=O)c1c(-c2ccc(F)cc2)oc2cc3c(cc12)[C@H](C)O[C@H](CO)CN3S(C)(=O)=O` [Compound B212], on HCV NS5B S365A mutant, the “Inhibition of HCV NS5B S3865A mutant” value was “†††”. Further, the EC50 was ≤ 0.01 µM in assay [1] (setting [2]) and < 0.01 µM in assay [1] (setting [3]). Further, the “Inhibition of HCV N55B C316Y mutant” value at HCV NS5B C316Y mutant is “†††”.

Consider `CNC(=O)c1c(-c2ccc(F)cc2)oc2cc3c(cc12)CCCN3S(C)(=O)=O` [Compound B1], for which the “Inhibition of HCV NS5B S3865A mutant” value at HCV NS5B S365A mutant is “††† (EC50 ≦ 200 nM)”. Moreover, the EC50 in assay [1] (setting [3]) was in the range of 0.1 to 1 µM. The “Inhibition of HCV N55B C316Y mutant” value on HCV NS5B C316Y mutant is on record as “††† (EC50 ≦ 200 nM)”.

As for `CNC(=O)c1c(-c2ccc(F)cc2)oc2cc3c(cc12)[C@H](C)OC(C)(C)CN3S(C)(=O)=O` (single isomer, unassigned) [Compound B184], the EC50 on HCV NS5B S365A mutant is 0.2 to 1 µM; in assay [1] (setting [2]) it was 0.01 to 0.1 µM; in assay [1] (setting [4]), 0.0165 µM; on HCV NS5B C316Y mutant it was > 1 µM.

Consider `CC1c2cc3c(-c4ncc[nH]4)c(-c4ccc(F)cc4)oc3cc2N(S(C)(=O)=O)CCN1C` (stereo not drawn) [Compound B171], for which the values for the EC50 (at HCV NS5B S365A mutant; in assay [1] (setting [2]); in assay [1] (setting [3])) were 0.2 to 1 µM, ≤ 0.01 µM and < 0.01 µM, respectively. For the same compound, the “Inhibition of HCV N55B C316Y mutant” value on HCV NS5B C316Y mutant was “†††”.

Regarding `CNC(=O)c1c(-c2ccc(F)cc2)oc2cc3c(cc12)C(C)N(CCO)CCN3S(C)(=O)=O` (stereo not drawn) [Compound B145], the EC50 on HCV NS5B S365A mutant is 0.2 to 1 µM; in assay [1] (setting [2]), ≤ 0.01 µM; in assay [1] (setting [3]), < 0.01 µM. Besides, at HCV NS5B C316Y mutant, the “Inhibition of HCV N55B C316Y mutant” value is reported as “†††”.

Take `CNC(=O)c1c(-c2ccc(Oc3ccc(F)cc3)cc2)oc2cc3c(cc12)[C@H](C)O[C@H](CS(C)(=O)=O)CN3S(C)(=O)=O` [Compound B207]: the “Inhibition of HCV NS5B S3865A mutant” value on HCV NS5B S365A mutant was “†††”. Also, in assay [1] (setting [3]), the EC50 was < 0.01 µM. The “Inhibition of HCV N55B C316Y mutant” value on HCV NS5B C316Y mutant was “†††”.

As for `CS(=O)(=O)N1CCCCc2cc3c(-c4ncc[nH]4)c(-c4ccc(F)cc4)oc3cc21` [Compound B67], the EC50 at HCV NS5B S365A mutant was 0.2 to 1 µM; in assay [1] (setting [2]) it was ≤ 0.01 µM; in assay [1] (setting [4]) it was 0.0052 µM. In addition, on HCV NS5B C316Y mutant, the “Inhibition of HCV N55B C316Y mutant” value is on record as “†††”.

For `CNC(=O)c1c(-c2ccc(F)cc2)oc2cc3c(cc12)[C@@H]1C[C@@H]1CCN3S(C)(=O)=O` (single isomer, unassigned) [Compound B132], at HCV NS5B S365A mutant, the “Inhibition of HCV NS5B S3865A mutant” value is given as “†††”. In addition, the EC50 in assay [1] (setting [2]) is ≤ 0.01 µM; in assay [1] (setting [3]), < 0.01 µM. Moreover, the “Inhibition of HCV N55B C316Y mutant” value at HCV NS5B C316Y mutant is “†††”.

As for `CNC(=O)c1c(-c2ccc(Oc3ccc(F)cc3)cc2)oc2cc3c(cc12)[C@H](C)OC(C)(C)CN3S(C)(=O)=O` (single isomer, unassigned) [Compound B176], the EC50 was 0.2 to 1 µM on HCV NS5B S365A mutant, 0.01 to 0.1 µM in assay [1] (setting [2]), 0.0136 µM in assay [1] (setting [4]) and 0.2 to 1 µM on HCV NS5B C316Y mutant.

Take `CNC(=O)c1c(-c2ccc(Oc3ccc(F)cc3)cc2)oc2cc3c(cc12)[C@H](C)OC1(CC1)CN3S(C)(=O)=O` (single isomer, unassigned) [Compound B187]: the EC50 is > 1 µM on HCV NS5B S365A mutant, ≤ 0.01 µM in assay [1] (setting [2]), < 0.01 µM in assay [1] (setting [3]) and > 1 µM on HCV NS5B C316Y mutant.
